Target: T1, WIZ protein (HiBit-WIZ fusion protein) (Homo sapiens, UniProt O95785+Q96SW2)
T1 construct: expressed in transfected cells
Test: Quantification of WIZ protein levels in HiBit tag fusion protein assay (WIZ HiBit assay in 293T cells)
Assay type: cell-based
Details: for Dmax at 25 µM / remaining activity at 25 µM: HEK-293T, 293T cells; for Dmax at 25 µM: 100 − Amax, read-out: % degradation of WIZ (100 − Amax); for remaining activity at 25 µM: DMSO-normalized, curve-fitted percentage of WIZ-HiBit remaining at 25 uM, read-out: WIZ Amax; for DC50: WIZ HiBit assay in 293T cells, 10-point, 5-fold dose response, highest concentration 25 μM, about 18 hours, read-out: WIZ AC50
Procedure, shortened: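 HiBit-tagged WIZ (N-terminal tag, HSVTK promoter) stably expressed single-copy in 293T cells; 10-point 1:5 compound series, top 25 μM, ~18 h at 37 °C. Lytic HiBit/LgBit luminescence read; Amax = curve-fitted % WIZ-HiBit remaining at 25 μM, DMSO normalized to 100%.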

T1 sequence (O95785 whole entry, the tested form may be a part): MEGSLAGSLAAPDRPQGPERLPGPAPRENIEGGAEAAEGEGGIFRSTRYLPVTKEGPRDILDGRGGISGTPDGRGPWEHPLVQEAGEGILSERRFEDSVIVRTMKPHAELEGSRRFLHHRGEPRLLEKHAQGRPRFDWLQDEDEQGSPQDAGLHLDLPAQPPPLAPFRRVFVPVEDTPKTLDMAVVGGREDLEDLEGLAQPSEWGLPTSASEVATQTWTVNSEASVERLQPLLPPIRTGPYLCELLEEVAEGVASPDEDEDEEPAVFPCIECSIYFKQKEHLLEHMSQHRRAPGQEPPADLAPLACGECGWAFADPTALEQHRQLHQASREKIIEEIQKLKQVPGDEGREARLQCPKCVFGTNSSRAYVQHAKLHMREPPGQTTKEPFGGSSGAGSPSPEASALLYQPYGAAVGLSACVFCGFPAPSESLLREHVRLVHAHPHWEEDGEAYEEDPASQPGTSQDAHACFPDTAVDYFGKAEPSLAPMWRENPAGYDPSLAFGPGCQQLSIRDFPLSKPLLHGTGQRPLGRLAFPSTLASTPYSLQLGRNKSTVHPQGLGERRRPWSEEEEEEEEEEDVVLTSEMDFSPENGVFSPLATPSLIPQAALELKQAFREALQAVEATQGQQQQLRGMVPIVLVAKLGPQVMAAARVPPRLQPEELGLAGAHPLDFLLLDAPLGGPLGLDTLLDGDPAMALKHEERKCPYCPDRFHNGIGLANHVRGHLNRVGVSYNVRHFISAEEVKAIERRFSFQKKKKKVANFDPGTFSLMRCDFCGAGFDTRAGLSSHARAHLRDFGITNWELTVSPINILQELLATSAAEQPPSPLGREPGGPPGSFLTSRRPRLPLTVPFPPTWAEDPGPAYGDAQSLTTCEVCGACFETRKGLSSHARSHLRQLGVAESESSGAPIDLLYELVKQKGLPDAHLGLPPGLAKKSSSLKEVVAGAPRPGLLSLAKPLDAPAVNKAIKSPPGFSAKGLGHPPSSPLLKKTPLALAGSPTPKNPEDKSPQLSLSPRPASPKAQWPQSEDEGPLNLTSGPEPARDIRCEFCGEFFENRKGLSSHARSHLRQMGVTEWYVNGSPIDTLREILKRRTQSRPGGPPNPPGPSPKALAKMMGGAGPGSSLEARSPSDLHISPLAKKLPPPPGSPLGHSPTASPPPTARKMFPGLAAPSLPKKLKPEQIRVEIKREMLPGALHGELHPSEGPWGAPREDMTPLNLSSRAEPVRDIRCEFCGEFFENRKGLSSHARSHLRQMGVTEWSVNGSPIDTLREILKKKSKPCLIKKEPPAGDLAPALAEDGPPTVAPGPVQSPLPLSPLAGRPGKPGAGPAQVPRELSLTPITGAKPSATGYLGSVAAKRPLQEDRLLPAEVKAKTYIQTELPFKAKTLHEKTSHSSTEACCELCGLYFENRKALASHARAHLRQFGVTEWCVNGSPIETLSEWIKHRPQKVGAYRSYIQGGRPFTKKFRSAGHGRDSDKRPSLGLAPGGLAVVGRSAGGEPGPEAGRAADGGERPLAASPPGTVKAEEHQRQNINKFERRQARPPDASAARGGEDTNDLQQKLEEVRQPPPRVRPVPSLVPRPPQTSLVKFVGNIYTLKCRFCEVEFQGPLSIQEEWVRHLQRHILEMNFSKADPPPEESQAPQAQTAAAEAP
T1 sequence (Q96SW2 whole entry, the tested form may be a part): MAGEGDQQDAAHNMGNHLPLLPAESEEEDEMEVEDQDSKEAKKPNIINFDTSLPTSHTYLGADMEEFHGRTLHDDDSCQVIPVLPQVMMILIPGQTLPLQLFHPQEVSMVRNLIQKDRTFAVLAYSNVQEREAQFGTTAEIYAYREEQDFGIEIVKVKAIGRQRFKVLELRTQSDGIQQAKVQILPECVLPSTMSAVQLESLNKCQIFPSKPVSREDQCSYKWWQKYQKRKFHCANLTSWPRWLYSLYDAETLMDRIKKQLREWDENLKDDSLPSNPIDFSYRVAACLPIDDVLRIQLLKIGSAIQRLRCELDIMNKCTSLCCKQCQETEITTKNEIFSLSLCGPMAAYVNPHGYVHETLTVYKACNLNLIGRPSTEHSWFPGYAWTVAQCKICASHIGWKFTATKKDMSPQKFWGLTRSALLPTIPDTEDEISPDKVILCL
T1 sequence (Q16531 whole entry partner, the tested form may be a part): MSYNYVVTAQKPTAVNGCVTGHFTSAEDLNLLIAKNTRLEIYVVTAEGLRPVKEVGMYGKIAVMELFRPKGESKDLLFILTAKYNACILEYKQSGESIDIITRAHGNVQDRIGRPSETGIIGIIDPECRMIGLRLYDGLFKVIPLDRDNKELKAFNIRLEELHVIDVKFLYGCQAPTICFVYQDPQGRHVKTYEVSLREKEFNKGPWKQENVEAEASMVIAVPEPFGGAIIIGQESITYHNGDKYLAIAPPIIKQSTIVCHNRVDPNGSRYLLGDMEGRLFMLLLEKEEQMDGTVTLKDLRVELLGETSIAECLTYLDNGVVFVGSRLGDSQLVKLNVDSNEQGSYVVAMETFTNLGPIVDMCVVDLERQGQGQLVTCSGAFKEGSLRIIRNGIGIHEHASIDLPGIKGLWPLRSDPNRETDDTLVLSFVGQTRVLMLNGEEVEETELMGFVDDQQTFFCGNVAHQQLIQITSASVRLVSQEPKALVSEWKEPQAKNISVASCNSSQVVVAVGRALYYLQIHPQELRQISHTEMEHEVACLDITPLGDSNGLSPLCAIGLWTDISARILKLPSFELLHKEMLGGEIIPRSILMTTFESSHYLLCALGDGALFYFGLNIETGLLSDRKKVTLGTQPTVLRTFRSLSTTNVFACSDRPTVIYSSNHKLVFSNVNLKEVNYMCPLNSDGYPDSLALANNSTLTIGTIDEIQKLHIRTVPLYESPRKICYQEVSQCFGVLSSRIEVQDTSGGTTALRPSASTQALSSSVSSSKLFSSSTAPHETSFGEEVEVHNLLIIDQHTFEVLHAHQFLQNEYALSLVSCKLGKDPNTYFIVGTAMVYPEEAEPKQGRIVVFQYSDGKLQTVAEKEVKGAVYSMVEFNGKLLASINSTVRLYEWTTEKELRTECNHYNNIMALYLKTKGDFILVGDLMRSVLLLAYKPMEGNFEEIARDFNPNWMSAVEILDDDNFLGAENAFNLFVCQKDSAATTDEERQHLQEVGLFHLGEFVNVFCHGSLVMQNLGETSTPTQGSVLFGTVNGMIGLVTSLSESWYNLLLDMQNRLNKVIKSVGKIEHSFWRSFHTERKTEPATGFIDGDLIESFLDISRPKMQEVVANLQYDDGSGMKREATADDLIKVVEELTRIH

Row | Compound | Dmax at 25 µM [%] | remaining activity at 25 µM [%] | DC50 [nM]
1 | O=C1CCN(c2cnn3ccc(CC4(F)CCN(Cc5ccccc5)CC4)cc23)C(=O)N1 [Example 126, 1-(5-((1-benzyl-4-fluoropiperidin-4-yl)methyl)pyrazolo[1,5-a]pyridin-3-yl)dihydropyrimidine-2,4(1H,3H)-dione] | 35 | 65 | 290
2 | Cc1c(CC2CCN(CC3CCCCC3)CC2)ccn2ncc(N3CCC(=O)NC3=O)c12 [Example 127, 1-(5-((1-(cyclohexylmethyl)piperidin-4-yl)methyl)-4-methylpyrazolo[1,5-a]pyridin-3-yl)dihydropyrimidine-2,4(1H,3H)-dione] | 69 | 31 | 13
3 | O=C1CCN(c2cnn3ccc(CC4CCN(CC5CCCCC5)C4)cc23)C(=O)N1 (stereo not drawn) [Example 128] | 29 | 71 | 830
4 | O=C1CCN(c2cnn3ccc(CC4CCN(Cc5cccnc5)C4)cc23)C(=O)N1 (stereo not drawn) [Example 129] | 35 | 65 | 800
5 | O=C1CCN(c2cnn3ccc(CC4CCN(CC5CCC5)C4)cc23)C(=O)N1 (stereo not drawn) [Example 130] | 36 | 64 | 1320
6 | O=C1CCN(c2cnn3ccc(CC4CCN(Cc5cccc(F)c5)C4)cc23)C(=O)N1 (stereo not drawn) [Example 131] | 38 | 62 | 370
7 | CC(C)CN1CCC(Cc2ccn3ncc(N4CCC(=O)NC4=O)c3c2)C1 (stereo not drawn) [Example 132] | 41 | 59 | 720
8 | O=C1CCN(c2cnn3ccc(CC4CNC4)cc23)C(=O)N1 [Example 133, 1-(5-(azetidin-3-ylmethyl)pyrazolo[1,5-a]pyridin-3-yl)dihydropyrimidine-2,4(1H,3H)-dione] | 21 | 79 | 4800
9 | CC(C)CN1CC(Cc2ccn3ncc(N4CCC(=O)NC4=O)c3c2)C1 [Example 134, 1-(5-((1-isobutylazetidin-3-yl)methyl)pyrazolo[1,5-a]pyridin-3-yl)dihydropyrimidine-2,4(1H,3H)-dione] | 27 | 73 | 4300
10 | O=C1CCN(c2cnn3ccc(CC4CN(CC5CCCCC5)C4)cc23)C(=O)N1 [Example 135, 1-(5-((1-(cyclohexylmethyl)azetidin-3-yl)methyl)pyrazolo[1,5-a]pyridin-3-yl)dihydropyrimidine-2,4(1H,3H)-dione] | 26 | 74 | 2100
11 | CC(C)(C1CCOCC1)N1CCC(Cc2ccn3ncc(N4CCC(=O)NC4=O)c3c2)CC1 [Example 136, 1-(5-((1-(2-(tetrahydro-2H-pyran-4-yl)propan-2-yl)piperidin-4-yl)methyl)pyrazolo[1,5-a]pyridin-3-yl)dihydropyrimidine-2,4(1H,3H)-dione] | 86 | 14 | 33
12 | CC(C)(CC1CCOCC1)N1CCC(Cc2ccn3ncc(N4CCC(=O)NC4=O)c3c2)CC1 [Example 137, 1-(5-((1-(2-methyl-1-(tetrahydro-2H-pyran-4-yl)propan-2-yl)piperidin-4-yl)methyl)pyrazolo[1,5-a]pyridin-3-yl)dihydropyrimidine-2,4(1H,3H)-dione] | 77 | 23 | 121
13 | CC(C)(C1CCC1)N1CCC(Cc2ccn3ncc(N4CCC(=O)NC4=O)c3c2)CC1 [Example 138, 1-(5-((1-(2-cyclobutylpropan-2-yl)piperidin-4-yl)methyl)pyrazolo[1,5-a]pyridin-3-yl)dihydropyrimidine-2,4(1H,3H)-dione] | 80 | 20 | 100
14 | CC(C)CC(C)(C)N1CCC(Cc2ccn3ncc(N4CCC(=O)NC4=O)c3c2)CC1 [Example 139, 1-(5-((1-(2,4-dimethylpentan-2-yl)piperidin-4-yl)methyl)pyrazolo[1,5-a]pyridin-3-yl)dihydropyrimidine-2,4(1H,3H)-dione] | 83 | 17 | 3
15 | CC(C)(C1CCC(F)(F)CC1)N1CCC(Cc2ccn3ncc(N4CCC(=O)NC4=O)c3c2)CC1 [Example 140, 1-(5-((1-(2-(4,4-difluorocyclohexyl)propan-2-yl)piperidin-4-yl)methyl)pyrazolo[1,5-a]pyridin-3-yl)dihydropyrimidine-2,4(1H,3H)-dione] | 90 | 10 | 7
16 | C[C@H]1C[C@H](Cc2ccn3ncc(N4CCC(=O)NC4=O)c3c2)CCN1CC1CCCCC1 [Example 143] | 88 | 12 | 4
17 | C[C@H]1C[C@H](Cc2ccn3ncc(N4CCC(=O)NC4=O)c3c2)CCN1CC1CCCC1 [Example 144] | 87 | 13 | 8
18 | C[C@H]1C[C@H](Cc2ccn3ncc(N4CCC(=O)NC4=O)c3c2)CCN1CC1CCC1 [Example 146] | 82 | 18 | 51
19 | C[C@H]1C[C@H](Cc2ccn3ncc(N4CCC(=O)NC4=O)c3c2)CCN1CC1CCCCCC1 [Example 147] | 90 | 10 | 5
20 | C[C@H]1C[C@H](Cc2ccn3ncc(N4CCC(=O)NC4=O)c3c2)CCN1CCC1CCOCC1 [Example 148] | 86 | 14 | 63

Row | Compound | Dmax at 25 µM [%] | remaining activity at 25 µM [%] | DC50 [nM]
21 | C[C@H]1C[C@H](Cc2ccn3ncc(N4CCC(=O)NC4=O)c3c2)CCN1CC1CCC(C)(C)CC1 [Example 149] | 90 | 10 | 0.4
22 | C[C@H]1C[C@H](Cc2ccn3ncc(N4CCC(=O)NC4=O)c3c2)CCN1Cc1cccnc1 [Example 150] | 90 | 10 | 0.3
23 | O=C1CCN(c2cnn3ccc(CC4CCN(C[C@H]5CC[C@H](O)CC5)CC4)cc23)C(=O)N1 [Example 151, 1-(5-((1-(((1r,4r)-4-hydroxycyclohexyl)methyl)piperidin-4-yl)methyl)pyrazolo[1,5-a]pyridin-3-yl)dihydropyrimidine-2,4(1H,3H)-dione] | 86 | 14 | 270
24 | C[C@H]1C[C@H](Cc2ccn3ncc(N4CCC(=O)NC4=O)c3c2)CCN1CC1CC(F)(F)C1 [Example 152, 1-(5-(((2S,4R)-1-((3,3-difluorocyclobutyl)methyl)-2-methylpiperidin-4-yl)methyl)pyrazolo[1,5-a]pyridin-3-yl)dihydropyrimidine-2,4(1H,3H)-dione] | 81 | 19 | 910
25 | CC(C)CN1CC[C@H](Cc2ccn3ncc(N4CCC(=O)NC4=O)c3c2)C[C@H]1C [Example 153] | 86 | 14 | 14
26 | C[C@@H]1C[C@@H](Cc2ccn3ncc(N4CCC(=O)NC4=O)c3c2)CCN1CC1CCOCC1 [Example 154] | 78 | 22 | 41
27 | C[C@@H]1C[C@@H](Cc2ccn3ncc(N4CCC(=O)NC4=O)c3c2)CCN1CC1CCC(F)(F)CC1 [Example 155] | 85 | 15 | 9
28 | O=C1CCN(c2cnn3ccc(CN4CCN(CC5CCC(F)(F)CC5)CC4)cc23)C(=O)N1 [Example 157] | 83 | 17 | 22
29 | O=C1CCN(c2cnn3ccc(CN4CCN(CC5CCCCCC5)CC4)cc23)C(=O)N1 [Example 158] | 82 | 18 | 25
30 | O=C1CCN(c2cnn3ccc(CN4CCN(CC5CCCC5)CC4)cc23)C(=O)N1 [Example 159] | 81 | 19 | 23
31 | O=C1CCN(c2cnn3ccc(CN4CCN(CCC5CCOCC5)CC4)cc23)C(=O)N1 [Example 161] | 80 | 20 | 115
32 | O=C1CCN(c2cnn3ccc(CN4CCN(CC5CCCOC5)CC4)cc23)C(=O)N1 (stereo not drawn) [Example 162] | 79 | 21 | 79
33 | CCCN1CCN(Cc2ccn3ncc(N4CCC(=O)NC4=O)c3c2)CC1 [Example 163] | 76 | 24 | 561
34 | CCC(CC)N1CCN(Cc2ccn3ncc(N4CCC(=O)NC4=O)c3c2)CC1 [Example 164] | 69 | 31 | 323
35 | O=C1CCN(c2cnn3ccc(CN4CCN(Cc5ccccc5)CC4)cc23)C(=O)N1 [Example 165] | 69 | 31 | 198
36 | CC(C)N1CCN(Cc2ccn3ncc(N4CCC(=O)NC4=O)c3c2)CC1 [Example 166] | 66 | 34 | 632
37 | Cc1ccccc1CN1CCN(Cc2ccn3ncc(N4CCC(=O)NC4=O)c3c2)CC1 [Example 167] | 57 | 43 | 286
38 | O=C1CCN(c2cnn3ccc(CN4CCN(Cc5ccc(F)cc5)CC4)cc23)C(=O)N1 [Example 168] | 56 | 44 | 127
39 | CC(C)(F)CN1CCN(Cc2ccn3ncc(N4CCC(=O)NC4=O)c3c2)CC1 [Example 169] | 55 | 45 | 326

From US11787785B2 (NOVARTIS AG, priority 2021, dated 2023)
